Test results published in the CombiSolv-Exp solvation set (Vermeire and Green 2021).

Test: solvent given as SMILES

c1ccc2c(c1)Cc1ccccc1-2
Conditions	solvation free energy, 298 K [kcal/mol]
in CC(=O)N(C)C	-10.4
in CC(C)(C)O	-8.84
in CC(C)CC(C)(C)C	-9.32
in CC(C)CCO	-8.95
in CC(C)CO	-9.21
in CC(C)O	-8.92
in CCC(C)O	-8.95
in CCCC(C)O	-9.03
in CCCCC(CC)CO	-9.14
in CCCCCC	-9.29
in CCCCCCC	-9.3
in CCCCCCCC	-9.29
in CCCCCCCCC=CCCCCCCCC(=O)OCC(COC(=O)CCCCCCCC=CCCCCCCCC)OC(=O)CCCCCCCC=CCCCCCCCC	-9.74
in CCCCCCCCCC	-9.32
in CCCCCCCCCCO	-9.33
in CCCCCCCCO	-9.32
in CCCCCCCO	-9.33
in CCCCCCO	-9.26
in CCCCCO	-9.24
in CCCCO	-9.15
in CCCO	-9.09
in CCO	-8.93
in CN1CCCC1=O	-10.5
in CO	-8.85
in O	-3.34

CCOP(=S)(OCC)SCSCC
Conditions	solvation free energy, 298 K [kcal/mol]
in O	-4.37

CC1=CCCCC1
Conditions	solvation free energy, 298 K [kcal/mol]
in O	0.66

Clc1cc(Cl)c(-c2c(Cl)cccc2Cl)c(Cl)c1
Conditions	solvation free energy, 298 K [kcal/mol]
in O	-1.96

Oc1ccc(Cl)c(Cl)c1
Conditions	solvation free energy, 298 K [kcal/mol]
in O	-7.29

CN(C)CC=C(c1ccc(Br)cc1)c1cccnc1
Conditions	solvation free energy, 298 K [kcal/mol]
in O	-11.9

Nc1ccc2ccccc2c1
Conditions	solvation free energy, 298 K [kcal/mol]
in CCCCCC	-8.89
in CCCCCCCC	-8.96
in O	-7.47

C=CC(=C)C
Conditions	solvation free energy, 298 K [kcal/mol]
in BrC(Br)C(Br)Br	-2.83
in Brc1cccc2ccccc12	-2.82
in C1=Cc2ccccc2C1	-3.1
in CC1COC(=O)O1	-2.45
in CC(=O)N(C)C	-2.89
in CC(=O)OCc1ccccc1	-2.93
in CC(=O)c1ccccc1	-2.93
in CC(C)CC(C)(C)C	-3.16
in CCC(C)=O	-3.27
in CCCCC#N	-3.06
in CCCCCC#N	-3.11
in CCCCCCC	-3.22
in CCCCCCCC	-3.18
in CCCCCCCCO	-2.81
in CCCCO	-2.89
in CCNC(C)=O	-2.81
in CCOC(C)=O	-3.29
in CN1CCCC1=O	-2.89
in CN(C)C=O	-2.88
in CN(C)P(=O)(N(C)C)N(C)C	-2.89
in CNC(C)=O	-2.74
in CNC=O	-2.44
in CS(C)=O	-2.38
in Cc1cccc2ccccc12	-2.94
in Cc1cccc(O)c1	-2.72
in ClC(Cl)(Cl)Cl	-3.49
in ClC(Cl)C(Cl)Cl	-3.21
in ClCCCl	-3.3
in Clc1cccc2ccccc12	-2.81
in N#CCCCC#N	-2.06
in N#CCCCCC#N	-2.35
in N#CCc1ccccc1	-2.7
in N#Cc1ccccc1	-3
in NCc1ccccc1	-2.85
in Nc1ccccc1	-2.56
in O	0.68
in O=C1CCCCC1	-3.22
in O=C(O)C(Cl)Cl	-2.77
in OCCO	-1.12
in OCc1ccccc1	-2.56
in c1ccc2ncccc2c1	-2.82

CCCCCCBr
Conditions	solvation free energy, 298 K [kcal/mol]
in O	0.18

COc1ccc2cc(C(C)C(=O)O)ccc2c1 (centres undefined)
Conditions	solvation free energy, 298 K [kcal/mol]
in C1CCOC1	-17.9
in C1COCCO1	-17.7
in CC(C)CCO	-16.4
in CC(C)CO	-16.3
in CC(C)O	-16.6
in CCC(C)O	-16.6
in CCCC(C)O	-16.5
in CCCCCCCCCCO	-16.2
in CCCCCCCO	-16.5
in CCCCCCO	-16.5
in CCCCCO	-16.5
in CCCCO	-16.6
in CCCCOC(C)=O	-16.6
in CCCO	-16.6
in CCO	-16.7
in CCOC(C)=O	-17.1
in CCOCC	-16.7
in CO	-16.7
in COC(C)=O	-17
